# Data taken from ChEMBL document CHEMBL1201862, “PubChem BioAssay data set” (2004).
# Calls of active or inactive are those of the source.
# Experiments:
# Troponin, cardiac muscle = Troponin, cardiac muscle (Homo sapiens, UniProt P19429+P45379+P63316); test: Fluorescence-based biochemical high throughput dose response assay for activators of the calcium sensitivity of cardiac Regulated Thin Filaments (RTF). [Related pubchem assays (depositor defined):AID493008, AID493018, AID504382, AID504383]; assay type: protein-complex assay
# [1] = viability of uninfected HEp-2 cells – cell-based, HTS, cytotoxicity control for RSV inhibitor project, dose response (AID 2410); assay type: functional; settings: human respiratory syncytial virus
# CHO-K1 = test: Counterscreen for antagonists of the orexin 1 receptor (OX1R; HCRTR1): Homogeneous time resolved fluorescence (HTRF)-based cell-based dose response assay to identify antagonists of the parental CHO-K1 cell line. [Related pubchem assays (depositor defined):AID434989, AID435008, AID463079, AID485270, AID492963, AID492964, AID492965, AID493232, AID504699, AID504701]; assay type: functional; settings: Cricetulus griseus;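 further: potency for inhibition of ATP-stimulated IP1 production as antagonists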
# [2] = Counterscreen for antagonists of the orexin 1 receptor (OX1R; HCRTR1): Fluorescence-based cell-based high throughput dose response assay to identify antagonists of the parental CHO cell line. [Related pubchem assays (depositor defined):AID434989, AID435008, AID463079, AID485270, AID492963, AID492964, AID492965, AID493232, AID504699, AID504701]; assay type: functional
# [3] = target: T1, Orexin/Hypocretin receptor type 1 (Homo sapiens, UniProt O43613); test: Homogeneous Time Resolved Fluorescence (HTRF)-based cell-based high throughput dose response assay for antagonists of the orexin 1 receptor (OX1R; HCRTR1). [Related pubchem assays (depositor defined):AID434989, AID435008, AID463079, AID485270, AID492963, AID492964, AID492965, AID493232, AID504717, AID504718]; assay type: functional
# T1 sequence (O43613 whole entry): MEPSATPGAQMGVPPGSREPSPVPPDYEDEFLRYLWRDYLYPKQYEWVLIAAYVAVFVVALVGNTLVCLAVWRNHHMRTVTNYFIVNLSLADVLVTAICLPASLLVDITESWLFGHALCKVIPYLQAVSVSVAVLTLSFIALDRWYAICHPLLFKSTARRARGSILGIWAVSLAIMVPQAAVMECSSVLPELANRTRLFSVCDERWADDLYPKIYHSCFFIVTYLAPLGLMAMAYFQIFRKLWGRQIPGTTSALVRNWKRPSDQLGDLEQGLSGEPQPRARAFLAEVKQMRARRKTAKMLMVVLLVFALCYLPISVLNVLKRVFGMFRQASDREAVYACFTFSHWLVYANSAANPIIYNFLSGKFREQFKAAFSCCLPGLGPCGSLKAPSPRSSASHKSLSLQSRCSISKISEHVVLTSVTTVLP
# [4] = target: T1, Orexin/Hypocretin receptor type 1; test: Fluorescence-based cell-based high throughput dose response assay for antagonists of the orexin 1 receptor (OX1R; HCRTR1). [Related pubchem assays (depositor defined):AID434989, AID435008, AID463079, AID485270, AID492963, AID492964, AID492965, AID493232, AID504717, AID504718]; assay type: functional
# [5] = target: T2, E3 ubiquitin-protein ligase XIAP (Homo sapiens, UniProt P98170); test: Counter Screen using XIAP-Bir3 for Chemical Antagonists of Bir1/2 domains of IAP-family anti-apoptotic proteins. [Related pubchem assays (depositor defined):AID1018, AID1449, AID1514, AID1638, AID1749, AID1750, AID488957, AID488963]
# T2 sequence (P98170 whole entry): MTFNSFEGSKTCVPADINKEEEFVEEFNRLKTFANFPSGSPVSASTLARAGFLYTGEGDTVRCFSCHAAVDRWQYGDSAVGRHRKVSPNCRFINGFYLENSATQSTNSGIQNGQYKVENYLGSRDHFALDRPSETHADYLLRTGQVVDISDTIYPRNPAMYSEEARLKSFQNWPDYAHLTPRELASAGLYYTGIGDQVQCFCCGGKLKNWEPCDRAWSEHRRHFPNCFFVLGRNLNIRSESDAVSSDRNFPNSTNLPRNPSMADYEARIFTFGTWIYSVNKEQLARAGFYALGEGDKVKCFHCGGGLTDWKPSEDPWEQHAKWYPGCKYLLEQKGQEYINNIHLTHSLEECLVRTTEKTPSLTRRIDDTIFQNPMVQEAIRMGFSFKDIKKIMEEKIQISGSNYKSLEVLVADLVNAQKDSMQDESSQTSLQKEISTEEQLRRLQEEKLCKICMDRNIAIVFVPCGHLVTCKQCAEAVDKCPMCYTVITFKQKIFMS
# [6] = target: T2, E3 ubiquitin-protein ligase XIAP; test: small molecules displacing peptide from XIAP – biochemical, IAP family, fluorescence polarization (AID 1018); assay type: functional
# Cannabinoid receptor 2 [7] = target: T3, Cannabinoid receptor 2 (Homo sapiens, UniProt P34972); test: SAR analysis of antagonists of the Cannabinoid Receptor 2 using an Image-Based Assay - Set 2. [Related pubchem assays (depositor defined):AID1961, AID1965]; assay type: functional
# T3 sequence (P34972 whole entry): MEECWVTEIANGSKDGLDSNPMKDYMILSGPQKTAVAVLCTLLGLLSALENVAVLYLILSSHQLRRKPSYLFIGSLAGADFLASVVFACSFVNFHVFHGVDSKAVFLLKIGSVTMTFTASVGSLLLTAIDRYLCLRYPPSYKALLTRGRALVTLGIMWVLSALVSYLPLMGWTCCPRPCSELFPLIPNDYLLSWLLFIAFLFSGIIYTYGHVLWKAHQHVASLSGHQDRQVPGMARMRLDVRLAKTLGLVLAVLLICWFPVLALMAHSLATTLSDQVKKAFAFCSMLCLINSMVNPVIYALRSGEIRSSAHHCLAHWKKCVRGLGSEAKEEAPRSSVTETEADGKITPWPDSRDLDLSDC
# [8] = target: T4, G-protein coupled receptor 55 (Homo sapiens, UniProt Q9Y2T6); test: SAR analysis of selective Agonists of GPR55 using an Image-Based Assay - Set 2. [Related pubchem assays (depositor defined):AID1961, AID1965]; assay type: functional
# T4 sequence (Q9Y2T6 whole entry): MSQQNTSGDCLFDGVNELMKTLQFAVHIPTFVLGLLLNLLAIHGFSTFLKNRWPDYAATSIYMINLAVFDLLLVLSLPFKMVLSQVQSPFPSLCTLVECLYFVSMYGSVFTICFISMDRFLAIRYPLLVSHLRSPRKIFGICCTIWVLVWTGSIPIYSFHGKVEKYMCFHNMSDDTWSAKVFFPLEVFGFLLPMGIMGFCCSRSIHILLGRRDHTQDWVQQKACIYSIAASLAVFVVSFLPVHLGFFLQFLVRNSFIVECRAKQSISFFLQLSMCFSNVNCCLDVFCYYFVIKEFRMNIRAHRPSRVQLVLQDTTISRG
# Cannabinoid receptor 2 [9] = target: T3, Cannabinoid receptor 2; test: SAR analysis of agonists of the Cannabinoid Receptor 2 using an Image-Based Assay - Set 2. [Related pubchem assays (depositor defined):AID1961, AID1965]; assay type: functional
# [10] = target: T5, G-protein coupled receptor 35 (Homo sapiens, UniProt Q9HC97); test: SAR analysis of Agonists of the GPR35 Receptor using an Image-Based Assay - Set 3. [Related pubchem assays (depositor defined):AID1961, AID1965]; assay type: functional
# T5 sequence (Q9HC97 whole entry): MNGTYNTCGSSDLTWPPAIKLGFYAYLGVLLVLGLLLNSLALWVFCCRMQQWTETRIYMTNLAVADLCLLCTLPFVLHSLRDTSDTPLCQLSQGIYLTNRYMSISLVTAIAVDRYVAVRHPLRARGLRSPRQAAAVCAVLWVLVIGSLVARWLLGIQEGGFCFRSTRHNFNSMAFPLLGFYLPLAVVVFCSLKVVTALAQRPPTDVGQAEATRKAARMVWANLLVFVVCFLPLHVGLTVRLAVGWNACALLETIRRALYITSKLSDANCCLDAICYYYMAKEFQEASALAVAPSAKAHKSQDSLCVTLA
# Cannabinoid receptor 1 [11] = target: T6, Cannabinoid receptor 1 (Homo sapiens, UniProt P21554); test: SAR analysis of antagonists of the Cannabinoid Receptor 1 using an Image-Based Assay - Set 3. [Related pubchem assays (depositor defined):AID1961, AID1965]; assay type: functional
# T6 sequence (P21554 whole entry): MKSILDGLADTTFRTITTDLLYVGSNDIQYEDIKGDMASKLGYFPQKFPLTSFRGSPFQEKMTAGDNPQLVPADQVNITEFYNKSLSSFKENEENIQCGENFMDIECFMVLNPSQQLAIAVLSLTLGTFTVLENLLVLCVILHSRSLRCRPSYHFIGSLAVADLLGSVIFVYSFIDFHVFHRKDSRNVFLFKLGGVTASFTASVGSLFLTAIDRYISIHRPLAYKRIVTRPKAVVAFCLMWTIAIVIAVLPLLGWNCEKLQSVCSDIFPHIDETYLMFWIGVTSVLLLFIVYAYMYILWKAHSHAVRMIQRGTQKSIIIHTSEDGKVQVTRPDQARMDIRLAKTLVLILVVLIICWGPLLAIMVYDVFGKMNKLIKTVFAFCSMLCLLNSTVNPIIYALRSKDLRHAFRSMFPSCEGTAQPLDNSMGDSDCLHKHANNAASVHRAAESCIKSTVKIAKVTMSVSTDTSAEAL
# Cannabinoid receptor 1 [12] = target: T6, Cannabinoid receptor 1; test: SAR analysis of agonists of the Cannabinoid Receptor 1 using an Image-Based Assay - Set 3. [Related pubchem assays (depositor defined):AID1961, AID1965]; assay type: functional
# [13] = target: T5, G-protein coupled receptor 35; test: SAR analysis of Antagonists of the GPR35 Receptor using an Image-Based Assay - Set 4. [Related pubchem assays (depositor defined):[…]]; assay type: functional
# T-cell = test: loss of vesicle association with mouse CD8+ T cells – mouse 2C CD8+ T cells, flow cytometry, dose response (AID 485284); assay type: functional
# [14] = Luminescence Cell-Based Dose Confirmation HTS to Identify Activators of 5'UTR Stem-Loop Driven Alpha-Synuclein mRNA Translation in H4 Neuroglioblastoma Cells. [Related pubchem assays: 1829 (Project Summary), 1814 (Primary HTS)]; assay type: functional
# [15] = Luminescence Cell-Based Dose Response HTS to Identify Activators of Luciferase Translation or Activity in H4 […] Cells. [Related pubchem assays: 1829 (Project Summary), 1814 (Primary HTS)]; assay type: functional
# [16] = target: Sphingosine 1-phosphate receptor 4 (Homo sapiens, UniProt O95977); test: Late-stage fluorescence dose response cell-based assay to identify agonists of the Sphingosine 1-Phosphate Receptor 4 (S1P4): purchased compounds EC50. [Related pubchem assays (depositor defined):AID1509, AID1523, AID1563, AID1686, AID1701, AID1801]; assay type: functional
# Sphingosine 1-phosphate receptor 4, sequence (O95977 whole entry): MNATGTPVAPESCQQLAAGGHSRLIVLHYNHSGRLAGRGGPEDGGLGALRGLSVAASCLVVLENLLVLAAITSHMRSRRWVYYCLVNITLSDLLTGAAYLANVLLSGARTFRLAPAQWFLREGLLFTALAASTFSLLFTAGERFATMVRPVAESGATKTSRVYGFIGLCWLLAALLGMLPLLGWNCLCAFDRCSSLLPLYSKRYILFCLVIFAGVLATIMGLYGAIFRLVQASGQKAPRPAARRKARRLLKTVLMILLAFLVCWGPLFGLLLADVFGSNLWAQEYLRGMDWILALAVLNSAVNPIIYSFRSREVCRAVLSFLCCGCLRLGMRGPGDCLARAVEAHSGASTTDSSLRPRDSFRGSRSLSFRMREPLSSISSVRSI
# [17] = target: T7, Tyrosine-protein phosphatase non-receptor type 7 (Homo sapiens, UniProt P35236); test: inhibition of hematopoietic tyrosine phosphatase HePTP – biochemical, set 2, SAR follow-up (AID 449736); assay type: functional
# T7 sequence (P35236 whole entry): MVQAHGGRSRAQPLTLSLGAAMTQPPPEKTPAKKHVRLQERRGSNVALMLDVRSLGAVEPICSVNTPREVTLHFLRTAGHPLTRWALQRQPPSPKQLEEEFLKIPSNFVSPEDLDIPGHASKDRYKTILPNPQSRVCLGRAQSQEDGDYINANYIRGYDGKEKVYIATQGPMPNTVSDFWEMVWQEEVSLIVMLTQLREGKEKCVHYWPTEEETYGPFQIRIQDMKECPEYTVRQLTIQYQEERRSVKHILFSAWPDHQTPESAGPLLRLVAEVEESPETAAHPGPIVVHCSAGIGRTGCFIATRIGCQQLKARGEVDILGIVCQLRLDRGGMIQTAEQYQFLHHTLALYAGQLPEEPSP
# [18] = target: T5, G-protein coupled receptor 35; test: SAR analysis of Agonists of the GPR35 Receptor using an Image-Based Assay - Set 4. [Related pubchem assays (depositor defined):AID2013, AID2026]; assay type: functional
# Cannabinoid receptor 1 [19] = target: T6, Cannabinoid receptor 1; test: SAR analysis of agonists of the Cannabinoid Receptor 1 using an Image-Based Assay - Set 4. [Related pubchem assays (depositor defined):AID2013, AID2026]; assay type: functional
# [20] = target: T5, G-protein coupled receptor 35; test: SAR analysis of Antagonists of the GPR35 Receptor using an Image-Based Assay - Set 6. [Related pubchem assays (depositor defined):AID2013, AID2026]; assay type: functional
# Cannabinoid receptor 1 [21] = target: T6, Cannabinoid receptor 1; test: SAR analysis of antagonists of the Cannabinoid Receptor 1 using an Image-Based Assay - Set 4. [Related pubchem assays (depositor defined):AID2013, AID2026]; assay type: functional
# [22] = target: T4, G-protein coupled receptor 55; test: SAR Analysis of Selective Antagonists of GPR55 using an Image-Based Assay - Set 4. [Related pubchem assays (depositor defined):AID2013, AID2026]; assay type: functional
# Cannabinoid receptor 2 [23] = target: T3, Cannabinoid receptor 2; test: SAR analysis of antagonists of the Cannabinoid Receptor 2 using an Image-Based Assay - Set 3. [Related pubchem assays (depositor defined):AID2013, AID2026]; assay type: functional
# Cannabinoid receptor 2 [24] = target: T3, Cannabinoid receptor 2; test: SAR analysis of agonists of the Cannabinoid Receptor 2 using an Image-Based Assay - Set 3. [Related pubchem assays (depositor defined):AID2013, AID2026]; assay type: functional
# [25] = target: T8, Delta-type opioid receptor (Homo sapiens, UniProt P41143); test: HTS Image-Based Screen for Antagonists of the DOR Receptor. [Related pubchem assays (depositor defined):AID1777, AID1785, AID1786, AID2133]; assay type: functional
# T8 sequence (P41143 whole entry): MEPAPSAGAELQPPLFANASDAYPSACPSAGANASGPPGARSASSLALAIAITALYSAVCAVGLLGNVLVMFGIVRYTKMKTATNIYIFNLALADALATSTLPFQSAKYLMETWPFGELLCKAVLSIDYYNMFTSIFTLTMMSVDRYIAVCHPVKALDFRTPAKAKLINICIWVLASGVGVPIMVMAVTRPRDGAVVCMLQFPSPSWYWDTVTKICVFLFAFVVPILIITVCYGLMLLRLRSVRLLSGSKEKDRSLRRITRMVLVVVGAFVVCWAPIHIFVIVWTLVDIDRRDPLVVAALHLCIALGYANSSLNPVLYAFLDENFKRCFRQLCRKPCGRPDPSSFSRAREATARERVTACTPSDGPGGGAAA
# [26] = luciferase reporter signal suppression in cells – H4 neuroglioma cells, luminescence, dose response (AID 1990); assay type: functional, cell-based
# Mu-type opioid receptor = Mu-type opioid receptor (Homo sapiens, UniProt P35372); test: HTS Image-Based Screen for Agonists of the MOR Receptor. [Related pubchem assays (depositor defined):AID1777, AID1785, AID1786, AID2133]; assay type: functional;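 further: imaging of beta-arrestin GFP recruitment into spots after receptor activation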
# Mu-type opioid receptor, sequence (P35372 whole entry): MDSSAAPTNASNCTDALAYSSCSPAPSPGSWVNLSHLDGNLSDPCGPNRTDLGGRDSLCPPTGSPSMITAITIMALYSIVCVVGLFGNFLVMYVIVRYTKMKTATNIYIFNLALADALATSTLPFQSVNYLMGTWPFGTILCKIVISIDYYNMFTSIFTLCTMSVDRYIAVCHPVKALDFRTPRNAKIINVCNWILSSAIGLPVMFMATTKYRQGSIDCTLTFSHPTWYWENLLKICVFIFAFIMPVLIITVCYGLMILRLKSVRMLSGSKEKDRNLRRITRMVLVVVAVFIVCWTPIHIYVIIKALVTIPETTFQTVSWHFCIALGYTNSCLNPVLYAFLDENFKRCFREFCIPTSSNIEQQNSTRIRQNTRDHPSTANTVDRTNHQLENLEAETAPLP
# [27] = target: T8, Delta-type opioid receptor; test: HTS Image-Based Screen for Agonists of the DOR Receptor. [Related pubchem assays (depositor defined):AID1777, AID1786, AID2133]; assay type: functional
# [28] = Luminescence Cell-Based Dose Response HTS to Identify Inhibitors of 5'UTR Stem-Loop Driven Prion Protein mRNA Translation in H4 Neuroglioblastoma Cells. [Related pubchem assays: 1827 (Project Summary), 1813 (Primary HTS)]; assay type: functional
# Vero = test: mammalian cell viability reduction – secondary assay, cytotoxicity control for West Nile virus antiviral project, dose response (AID 1650); assay type: functional; settings: Chlorocebus sabaeus
# [29] = alpha-synuclein stem-loop luciferase translation blockers – H4 neuroglioma cells, luminescence, confirmation (AID 1988); assay type: functional, cell-based
# [30] = target: T9, Kappa-type opioid receptor (Homo sapiens, UniProt P41145); assay type: functional
# T9 sequence (P41145 whole entry): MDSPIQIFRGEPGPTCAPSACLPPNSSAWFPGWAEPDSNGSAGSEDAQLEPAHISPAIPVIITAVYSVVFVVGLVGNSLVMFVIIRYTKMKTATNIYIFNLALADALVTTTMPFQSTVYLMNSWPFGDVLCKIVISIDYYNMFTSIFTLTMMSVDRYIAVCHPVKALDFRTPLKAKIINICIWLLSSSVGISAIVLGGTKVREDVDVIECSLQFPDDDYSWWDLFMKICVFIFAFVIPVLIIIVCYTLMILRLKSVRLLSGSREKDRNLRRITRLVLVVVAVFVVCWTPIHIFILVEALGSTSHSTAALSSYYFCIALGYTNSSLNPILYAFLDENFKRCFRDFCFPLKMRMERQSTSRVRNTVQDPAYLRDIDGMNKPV
# Beta-galactosidase = Beta-galactosidase (Escherichia coli, UniProt Q8VNN2); assay type: functional
# [31] = target: T9, Kappa-type opioid receptor; assay type: functional; remark: listed apart in the source
# [32] = target: E3 ubiquitin-protein ligase Mdm2/Protein Mdm4 (Homo sapiens, UniProt O15151+Q00987); test: disruption of Mdm2/MdmX protein binding – luminescence detection, dose response (AID 504593); assay type: functional
# E3 ubiquitin-protein ligase Mdm2/Protein Mdm4, sequence (Q00987 whole entry): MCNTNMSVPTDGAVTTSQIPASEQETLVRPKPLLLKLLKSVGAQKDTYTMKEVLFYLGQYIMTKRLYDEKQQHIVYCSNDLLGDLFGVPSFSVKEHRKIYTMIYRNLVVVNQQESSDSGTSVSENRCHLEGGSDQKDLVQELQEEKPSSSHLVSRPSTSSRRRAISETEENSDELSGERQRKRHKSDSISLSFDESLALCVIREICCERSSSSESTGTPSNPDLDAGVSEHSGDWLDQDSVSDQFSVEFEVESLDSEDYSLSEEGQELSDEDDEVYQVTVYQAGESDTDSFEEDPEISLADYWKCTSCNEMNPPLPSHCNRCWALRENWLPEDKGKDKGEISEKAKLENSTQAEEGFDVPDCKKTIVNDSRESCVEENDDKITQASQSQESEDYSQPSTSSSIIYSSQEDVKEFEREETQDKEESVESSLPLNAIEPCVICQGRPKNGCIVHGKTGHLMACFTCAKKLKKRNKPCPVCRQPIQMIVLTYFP
# E3 ubiquitin-protein ligase Mdm2/Protein Mdm4, sequence (O15151 whole entry): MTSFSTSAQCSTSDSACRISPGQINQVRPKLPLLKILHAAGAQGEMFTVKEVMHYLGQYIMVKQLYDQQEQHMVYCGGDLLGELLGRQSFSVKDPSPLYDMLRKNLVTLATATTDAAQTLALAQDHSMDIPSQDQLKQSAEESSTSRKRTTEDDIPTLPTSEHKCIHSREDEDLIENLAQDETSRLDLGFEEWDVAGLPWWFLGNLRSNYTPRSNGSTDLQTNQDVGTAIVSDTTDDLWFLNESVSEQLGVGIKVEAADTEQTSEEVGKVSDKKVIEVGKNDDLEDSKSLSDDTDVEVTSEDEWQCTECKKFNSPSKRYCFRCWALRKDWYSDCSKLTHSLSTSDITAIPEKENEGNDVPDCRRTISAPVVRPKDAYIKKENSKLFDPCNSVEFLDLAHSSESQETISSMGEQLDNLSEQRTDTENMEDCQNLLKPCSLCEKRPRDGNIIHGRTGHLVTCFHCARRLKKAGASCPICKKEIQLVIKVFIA
structure (smiles),measurement,setting,value
O=C(c1ccc(COc2ccccc2Br)o1)N1N=C(C(F)F)CC1(O)C(F)F (stereo not drawn),EC50,"Troponin, cardiac muscle",> 71.5 µM (inactive)
Cc1cc(C)nc(N=C(N)Nc2ccc(SC(F)F)cc2)n1,CC50,[1],16.1 µM (active)
same,IC50,CHO-K1,> 66.2 µM (inactive)
same,IC50,[2],22.1 µM (inactive)
same,IC50,[3],57 µM (inactive)
same,IC50,[4],14.7 µM (inactive)
CCOc1ccc2cc(C(=O)c3ccccc3)c(=O)oc2c1,IC50,[5],> 100 µM (inactive)
same,IC50,[6],> 100 µM (not active)
COc1ccc(S(=O)(=O)N2CCOCC2)cc1NC(=O)c1ccc(Cl)cc1,IC50,Cannabinoid receptor 2 [7],> 32 µM (inactive)
same,EC50,[8],0.138 µM (active)
same,EC50,Cannabinoid receptor 2 [9],> 32 µM (inactive)
same,EC50,[10],> 32 µM (inactive)
same,IC50,Cannabinoid receptor 1 [11],> 32 µM (inactive)
same,EC50,Cannabinoid receptor 1 [12],5.08 µM (active)
same,IC50,[13],12.3 µM (inactive)
Cc1ccc(O)c(CCc2ccccc2)n1,EC50,T-cell,9.49 µM (active)
Cc1ccc(OCCOc2cccc(Br)c2)c([N+](=O)[O-])n1,EC50,[14],5.57 µM (active)
same,EC50,[15],27.6 µM (active)
same,EC50,[16],> 50 µM (inactive)
Cc1ccc(C)c(-n2c(N)c(C(=O)N3CCCCC3)sc2=S)c1,IC50,[17],> 100 µM (inactive)
Cc1[nH]nc(-c2ccc(OCCN3CCOCC3)cc2O)c1-c1ccc(Cl)cc1,EC50,[18],> 32 µM (inactive)
same,EC50,Cannabinoid receptor 1 [19],> 32 µM (inactive)
same,IC50,[20],> 32 µM (inactive)
same,IC50,Cannabinoid receptor 1 [21],2.11 µM (active)
same,IC50,[22],19.2 µM (inactive)
same,IC50,Cannabinoid receptor 2 [23],29.1 µM (inactive)
same,EC50,Cannabinoid receptor 2 [24],> 32 µM (inactive)
O=[N+]([O-])c1ccccc1S(=O)(=O)Nc1cccc2cccnc12,IC50,[25],> 32 µM (inactive)
same,EC50,[26],14.1 µM (active)
same,EC50,Mu-type opioid receptor,> 32 µM (inactive)
same,EC50,[27],> 32 µM (inactive)
same,EC50,[28],11.6 µM (active)
same,CC50,Vero,8.6 µM (active)
same,EC50,[29],> 120 µM (not active)
same,IC50,[30],7.84 µM (active)
same,EC50,Beta-galactosidase,> 31.5 µM (inactive)
same,IC50,[31],> 32 µM
same,IC50,[32],3.73 µM (active)
